The target in this test is T1, full-length MALT1 protein His-MALT1(1-824) (Homo sapiens, UniProt Q9UDY8).
T1 construct: full-length MALT1 protein His-MALT1(1-824); His (N); made in house; host or cells: baculovirus-infected insect cells
T1 sequence (Q9UDY8 1-824): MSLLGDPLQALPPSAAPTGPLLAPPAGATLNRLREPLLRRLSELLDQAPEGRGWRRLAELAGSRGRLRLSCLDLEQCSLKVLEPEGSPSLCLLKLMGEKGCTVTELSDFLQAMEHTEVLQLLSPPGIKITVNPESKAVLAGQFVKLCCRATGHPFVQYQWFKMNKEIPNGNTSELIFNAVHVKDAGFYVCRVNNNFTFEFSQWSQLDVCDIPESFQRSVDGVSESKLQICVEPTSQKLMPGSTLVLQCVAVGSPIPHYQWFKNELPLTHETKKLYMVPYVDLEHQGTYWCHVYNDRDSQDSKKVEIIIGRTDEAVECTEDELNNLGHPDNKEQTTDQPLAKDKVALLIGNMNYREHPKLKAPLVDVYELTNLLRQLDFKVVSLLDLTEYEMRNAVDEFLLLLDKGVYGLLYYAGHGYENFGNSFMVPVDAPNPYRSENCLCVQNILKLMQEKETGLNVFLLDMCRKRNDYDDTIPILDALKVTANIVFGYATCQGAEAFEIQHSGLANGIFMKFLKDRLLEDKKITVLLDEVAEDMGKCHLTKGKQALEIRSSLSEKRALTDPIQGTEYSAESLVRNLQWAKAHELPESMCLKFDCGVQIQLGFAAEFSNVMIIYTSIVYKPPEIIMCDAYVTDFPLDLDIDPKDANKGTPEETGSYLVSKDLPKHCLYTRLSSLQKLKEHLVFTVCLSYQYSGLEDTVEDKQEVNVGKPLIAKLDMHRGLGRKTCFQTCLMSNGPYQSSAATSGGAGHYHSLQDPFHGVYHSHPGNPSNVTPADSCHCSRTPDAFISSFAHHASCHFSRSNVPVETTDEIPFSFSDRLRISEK
Put plainly: MALT1 protease assay, Assay 2 (1 nM MALT1, Ac-LRSR-AMC substrate). The class given is biochemical. The note with it: 1 nM MALT1, 50 μM Ac-LRSR-AMC, 2 h pre-incubation, 8 hr incubation at RT. As for the experimental part: MALT1 protease activity was assessed in an in vitro assay using a tetrapeptide as substrate and full-length MALT1 protein His-MALT1(1-824) purified from baculovirus-infected insect cells. The tetrapeptide substrate is Ac-LRSR-AMC (SM Biochemicals) with Km measured at around 100 μM.
The final assay buffer includes 1 nM (Assay 2) or 2 nM (Assay 1) of MALT1 full-length protein, 50 μM Ac-LRSR-AMC substrate, 50 mM Tris pH 7.5, 600 mM Sodium Citrate, 1 mM DTT, 1 mM EDTA, and 0.05% BSA in 384-well plate format using black microtiter square well plates (Optiplate 384-F, Perkin Elmer).
Test compounds were dissolved in 100% DMSO at stock of 10 mM, with final DMSO concentration 0.1%. Test compounds were pre-incubated with MALT1 protein for 2 h at room temperature. Substrate was added after the pre-incubation and fluorescence signal was measured using Envision at excitation 355 nm and emission 460 nm after 8 hr incubation at RT. Increase in the assay signal was linear over this period and proportional with increase in the enzyme content.
The fluorescence units were transformed to percentage of remaining activity by using the high control (HC, median of fluorescence signal from wells containing MALT1 protein, substrate, and DMSO) and low control (LC, median of fluorescence signal from wells with substrate only) with the formula below: […]
IC50 and Hill coefficients were obtained using Graph Pad Prism (Graph Pad software, Inc, USA) with non-linear regression analysis.
Usually IC50 stands for the concentration needed to halve the response being measured. With `C[C@]1(C(F)(F)F)C[C@H](C(=O)Nc2cnc(-n3nccn3)c(Cl)c2)c2cnc3cc(F)nn3c21` (single isomer, unassigned) [Example 187], the IC50 was 10 to 100 nM.

The molecule `C[C@H](O)c1cnn(-c2ncc(NC(=O)[C@@H]3CC4(CCC4)c4c3cnc3cc(Cl)nn43)cc2Cl)n1` (single isomer, unassigned) [Example 159] displayed an IC50 not below 1000 nM.

As for `Cc1cc(NC(=O)[C@@H]2CC(C)(C)c3c2cnc2cc(Cl)nn32)cnc1-n1nccn1` (single isomer, unassigned) [Example 180], the IC50 is not below 1000 nM.

The molecule `CC1(C)CC(C(=O)Nc2cnc(-n3cc(C4COC4)nn3)c(Cl)c2)c2cnc3cc(Cl)nn3c21` (stereo not drawn) [Example 119, 2-chloro-N-(5-chloro-6-(4-(oxetan-3-yl)-1H-1,2,3-triazol-1-yl)pyridin-3-yl)-8,8-dimethyl-7,8-dihydro-6H-cyclopenta[e]pyrazolo[1,5-a]pyrimidine-6-carboxamide] registered an IC50 of 100 to 1000 nM.

On to `CC1(C)CC(C(=O)Nc2cnc(-c3nnn(C4COC4)n3)c(Cl)c2)c2cnc3cc(Cl)nn3c21` (stereo not drawn) [Example 162, 2-chloro-N-(5-chloro-6-(2-(oxetan-3-yl)-2H-tetrazol-5-yl)pyridin-3-yl)-8,8-dimethyl-7,8-dihydro-6H-cyclopenta[e]pyrazolo[1,5-a]pyrimidine-6-carboxamide], for which the IC50 was 10 to 100 nM.

On to `O=C(Nc1cnc(-n2nccn2)c(Cl)c1)C1CC2(COC2)c2c1cnc1cc(Cl)nn21` (stereo not drawn) [Example 165, 2-chloro-N-(5-chloro-6-(2H-1,2,3-triazol-2-yl)pyridin-3-yl)-6,7-dihydrospiro[cyclopenta[e]pyrazolo[1,5-a]pyrimidine-8,3′-oxetane]-6-carboxamide], for which the IC50 was not below 1000 nM.

`CC1(C)C[C@@H](C(=O)Nc2cc(C#N)c(OC(F)F)cn2)c2cnc3cc(F)nn3c21` (single isomer, unassigned) [Example 169] gave an IC50 not below 1000 nM.

For `CC(C)(C)C1OC(=O)c2cc(NC(=O)C3CC4(CCC4)c4c3cnc3cc(F)nn43)cnc21` (stereo not drawn) [Example 166, N-(7-(tert-butyl)-5-oxo-5,7-dihydrofuro[3,4-b]pyridin-3-yl)-2′-fluoro-6′,7′-dihydrospiro[cyclobutane-1,8′-cyclopenta[e]pyrazolo[1,5-a]pyrimidine]-6′-carboxamide], the IC50 is not below 1000 nM.

For the molecule `CC1(C)CC(C(=O)Nc2cnc(OC(F)F)c(C#N)n2)c2cnc3cc(F)nn3c21` (single isomer, unassigned) [Example 87, N-(6-cyano-5-(difluoromethoxy)pyrazin-2-yl)-2-fluoro-8,8-dimethyl-7,8-dihydro-6H-cyclopenta[e]pyrazolo[1,5-a]pyrimidine-6-carboxamide], the IC50 was not below 1000 nM.

With `Cn1nnnc1-c1ncc(NC(=O)[C@@H]2CC(C)(C)c3c2cnc2cc(Cl)nn32)cc1Cl` (single isomer, unassigned) [Example 144, 2-chloro-N-(5-chloro-6-(1-methyl-1H-tetrazol-5-yl)pyridin-3-yl)-8,8-dimethyl-7,8-dihydro-6H-cyclopenta[e]pyrazolo[1,5-a]pyrimidine-6-carboxamide], the IC50 lay within 10 to 100 nM.

As for `CC1(C)CC(C(=O)Nc2cnc(C(=O)N3CC(F)(F)C3)c(C(F)(F)F)c2)c2cnc3cc(Cl)nn3c21` (stereo not drawn) [Example 164, 2-chloro-N-(6-(3,3-difluoroazetidine-1-carbonyl)-5˜(trifluoromethyl)pyridin-3-yl)-8,8-dimethyl-7,8-dihydro-6H-cyclopenta[e]pyrazolo[1,5-a]pyrimidine-6-carboxamide], the 50% inhibitory concentration (IC50) is 100 to 1000 nM.

With `CC1(C)C[C@@H](C(=O)Nc2ccnc(C(F)(F)F)c2)c2cnc3cc(C(F)F)nn3c21` (single isomer, unassigned) [Example 98, 2-(difluoromethyl)-8,8-dimethyl-N-(2-(trifluoromethyl)pyridin-4-yl)-7,8-dihydro-6H-cyclopenta[e]pyrazolo[1,5-a]pyrimidine-6-carboxamide], the IC50 is not below 1000 nM.

The molecule `CC1(C)C[C@@H](C(=O)Nc2cnc(-n3nccn3)c(C(F)(F)F)c2)c2cnc3cc(Cl)nn3c21` (single isomer, unassigned) [Example 45, N-(6-(2H-1,2,3-triazol-2-yl)-5˜(trifluoromethyl)pyridin-3-yl)-2-chloro-8,8-dimethyl-7,8-dihydro-6H-cyclopenta[e]pyrazolo[1,5-a]pyrimidine-6-carboxamide] returned a 50% inhibitory concentration (IC50) not below 1000 nM.

`CNC(=O)c1ncc(NC(=O)[C@@H]2CC(C)(C)c3c2cnc2cc(Cl)nn32)cc1C(F)(F)F` (single isomer, unassigned) [Example 154, 2-chloro-8,8-dimethyl-N-(6-(methylcarbamoyl)-5-(trifluoromethyl)pyridin-3-yl)-7,8-dihydro-6H-cyclopenta[e]pyrazolo[1,5-a]pyrimidine-6-carboxamide] gave an IC50 not below 1000 nM.

`CCO[C@@]1(C(F)(F)F)C[C@@H](C(=O)Nc2cnc(-n3nccn3)c(Cl)c2)c2cnc3cc(Cl)nn3c21` (single isomer, unassigned) [Example 167, (cis)-2-chloro-N-(5-chloro-6-(2H-1,2,3-triazol-2-yl)pyridin-3-yl)-8-ethoxy-8-(trifluoromethyl)-7,8-dihydro-6H-cyclopenta[e]pyrazolo[1,5-a]pyrimidine-6-carboxamide] gave an IC50 of 100 to 1000 nM.

Consider `CC1(C)CC(C(=O)Nc2cnc(-n3nccn3)c(Cl)c2)c2cnn3cc(C(F)F)nc3c21` (single isomer, unassigned) [Example 203, N-(5-chloro-6-(2H-1,2,3-triazol-2-yl)pyridin-3-yl)-2-(difluoromethyl)-9,9-dimethyl-8,9-dihydro-7H-cyclopenta[d]imidazo[1,2-b]pyridazine-7-carboxamide], for which the IC50 fell in the range of 10 to 100 nM.

Molecule `CC1(C)OC(C(=O)Nc2cnc(-n3nccn3)c(Cl)c2)c2cnc3cc(Cl)nn3c21` (single isomer, unassigned) [Example 70, 2-chloro-N-(5-chloro-6-(2H-1,2,3-triazol-2-yl)pyridin-3-yl)-8,8-dimethyl-6,8-dihydrofuro[3,4-e]pyrazolo[1,5-a]pyrimidine-6-carboxamide] gave an IC50 not below 1000 nM.

Molecule `CC1(C)C[C@@H](C(=O)Nc2cnc(C(=O)NC3CC3)c(C(F)F)c2)c2cnc3cc(Cl)nn3c21` (single isomer, unassigned) [Example 172] had a half-inhibitory concentration (IC50) not below 1000 nM.

On to `CC1(C)C[C@@H](C(=O)Nc2cnc(-n3ncc(C4COC4)n3)c(Cl)c2)c2cnc3cc(Cl)nn3c21` (single isomer, unassigned) [Example 110, 2-chloro-N-(5-chloro-6-(4-(oxetan-3-yl)-2H-1,2,3-triazol-2-yl)pyridin-3-yl)-8,8-dimethyl-7,8-dihydro-6H-cyclopenta[e]pyrazolo[1,5-a]pyrimidine-6-carboxamide], for which the IC50 is 10 to 100 nM.

Turning to `CC1(C)C[C@H](C(=O)Nc2cc(C(F)F)c(-c3ncco3)c(=O)[nH]2)c2cnc3cc(Cl)nn3c21` (single isomer, unassigned) [Example 58, 2-chloro-N-(4-(difluoromethyl)-5˜(oxazol-2-yl)-6-oxo-1,6-dihydropyridin-2-yl)-8,8-dimethyl-7,8-dihydro-6H-cyclopenta[e]pyrazolo[1,5-a]pyrimidine-6-carboxamide], the IC50 was 10 to 100 nM.

For the molecule `C[C@H](O)c1cnn(-c2ncc(NC(=O)[C@@H]3CC(C)(C)c4c3cnc3cc(Cl)nn43)cc2Cl)n1` (single isomer, unassigned) [Example 50, 2-chloro-N-(5-chloro-6-(4-(1-hydroxyethyl)-2H-1,2,3-triazol-2-yl)pyridin-3-yl)-8,8-dimethyl-7,8-dihydro-6H-cyclopenta[e]pyrazolo[1,5-a]pyrimidine-6-carboxamide], the IC50 was not below 1000 nM.

The values are drawn from US12667572B2, “Tricyclic compounds useful in the treatment of cancer, autoimmune and inflammatory disorders” (SCHRÖDINGER, INC., priority 2021, dated 2026).
